# Source: the supplement of paper PMC8633005
# What was measured:
# Test in all cases: drug sensitivity score (DSS) (DSS (unitless, 0-50 scale)); higher = more sensitive (stronger viability inhibition); extreme values may be limits of the assay
# Settings in all cases: 72 h; culture: 2D
# Bowes = test system: Bowes
# In short: (§1)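 A 527-compound oncology library was screened in 384-well plates against melanoma cell lines and patient-derived melanoma cultures grown in 2D, the cultures at 1000–1500 cells per well. Each compound, in DMSO or water, was applied at five concentrations over a 10,000-fold range and incubated for 72 h at 37 °C before CellTiter-Glo luminescence readout of viability. A drug sensitivity score, a modified area-under-curve measure, was calculated from curves fitted in the in-house Breeze software.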
# FM-MEL-2 = test system: FM-MEL-2
# In short: as §1
# FM-MEL-3 = test system: FM-MEL-3
# In short: as §1
# FM-MEL-6 = test system: FM-MEL-6
# In short: as §1
# SK-MEL-28 = test system: SK-MEL-28
# In short: as §1
# SK-MEL-2 = test system: SK-MEL-2
# In short: as §1
# WM165 = test system: WM165
# In short: as §1
# WM852 = test system: WM852
# In short: as §1
SMILES,drug sensitivity score (Bowes),drug sensitivity score (FM-MEL-2),drug sensitivity score (FM-MEL-3),drug sensitivity score (FM-MEL-6),drug sensitivity score (SK-MEL-28),drug sensitivity score (SK-MEL-2),drug sensitivity score (WM165),drug sensitivity score (WM852)
CO[C@H]1C[C@@H]2CC[C@@H](C)[C@@](O)(O2)C(=O)C(=O)N2CCCC[C@H]2C(=O)O[C@H]([C@H](C)C[C@@H]2CC[C@@H](OP(C)(C)=O)[C@H](OC)C2)CC(=O)[C@H](C)/C=C(\C)[C@@H](O)[C@@H](OC)C(=O)[C@H](C)C[C@H](C)/C=C/C=C/C=C/1C [Ridaforolimus],0,0.9,0,2.7,3.8,0,7.6,0
C[C@H]1CNCCCN1S(=O)(=O)c1cccc2cncc(F)c12 [Ripasudil],0,0,0,0,0,0,0.1,0
C=CC(=O)Nc1cccc(Nc2nc(Nc3ccc(N4CCN(C(C)=O)CC4)cc3OC)ncc2C(F)(F)F)c1 [Rociletinib],7.7,6.6,7.9,3.4,1.1,2.9,7.2,3
O=C(CCCCCCNC(=O)c1cnc(N(c2ccccc2)c2ccccc2)nc1)NO [Rocilinostat],2,2.8,6.4,6.6,3.7,3.4,5.7,2.3
C/C=C1\NC(=O)[C@H]2CSSCC/C=C/[C@H](CC(=O)N[C@H](C(C)C)C(=O)N2)OC(=O)[C@H](C(C)C)NC1=O [Romidepsin],18.6,28.1,29.7,26.5,29,30.4,30,17.9
Cc1nc(C(=O)NCC(=O)O)c(O)c2ccc(Oc3ccccc3)cc12 [Roxadustat],0,0,0,0,0,0,0,2.1
CN(C)C[C@@H]1CCn2cc(c3ccccc32)C2=C(C(=O)NC2=O)c2cn(c3ccccc23)CCO1 [Ruboxistaurin],4.5,7.2,6.5,7.6,9,4.7,8.6,6.7
CNCc1ccc(-c2[nH]c3cc(F)cc4c3c2CCNC4=O)cc1 [Rucaparib],0.6,0.8,0.5,0.7,0,0,3.8,0
N#CC[C@H](C1CCCC1)n1cc(-c2ncnc3[nH]ccc23)cn1 [Ruxolitinib],0.1,0,1.4,0,0,0,0,0.1
CC(C)N(CCCNC(=O)Nc1ccc(C(C)(C)C)cc1)C[C@H]1O[C@@H](n2cc(Br)c3c(N)ncnc32)[C@H](O)[C@@H]1O [SGC0946],0,1.4,6.1,0.8,0,0,0,2
COc1ccc(CCc2nc3cc(-c4c(C)noc4C)ccc3n2C[C@H](C)N2CCOCC2)cc1Cl [SGC-CBP30],3.6,4.9,7.4,3,0.9,0.1,5.2,0
CN1CCC(CNc2ccc3ncc(-c4cccc(OC(F)(F)F)c4)n3n2)CC1 [SGI-1776],5.5,5.9,5.1,5.3,6.1,4.8,6.1,6.1
CN(CC(=O)N(Cc1ccc(C2CCCCC2)cc1)c1ccc(C(=O)O)cc1)S(=O)(=O)c1c(F)c(F)c(F)c(F)c1F [SH-4-54],7.1,5.2,8.2,5.8,5.4,5.1,16.1,6.4
CCc1c2c(nc3ccc(O)cc13)-c1cc3c(c(=O)n1C2)COC(=O)[C@]3(O)CC [SN-38],19.7,11.8,24.6,19.7,17,17.3,42.7,8
CC(C)(C)c1cnc(CSc2cnc(NC(=O)C3CCNCC3)s2)o1 [SNS-032],31.8,12.7,19.2,26.1,18.9,19.2,25,18.2
Cc1cc2c(C(=O)NC[C@H](C)c3ccccc3)c(O)c(O)cc2c(O)c1-c1c(C)cc2c(C(=O)NC[C@H](C)c3ccccc3)c(O)c(O)cc2c1O [Sabutoclax],27.6,13,0.4,5.6,11.1,9.2,24.6,18

SMILES,drug sensitivity score (Bowes),drug sensitivity score (FM-MEL-2),drug sensitivity score (FM-MEL-3),drug sensitivity score (FM-MEL-6),drug sensitivity score (SK-MEL-28),drug sensitivity score (SK-MEL-2),drug sensitivity score (WM165),drug sensitivity score (WM852)
CC[C@@H](C(=O)[C@@H](C)[C@@H](O)[C@H](C)[C@@H]1O[C@@H]([C@@H](CC)C(=O)O)CC[C@@H]1C)[C@H]1O[C@]2(C=C[C@@H](O)[C@]3(CC[C@@](C)([C@H]4CC[C@](O)(CC)[C@H](C)O4)O3)O2)[C@H](C)C[C@@H]1C [Salinomycin],19.1,6.4,6.9,13.2,9.5,2.1,18.3,9.9
CC(C)n1nc(-c2ccc3oc(N)nc3c2)c2c(N)ncnc21 [Sapanisertib],13.2,10.1,9,11.1,10.2,7.9,11.7,8.6
CNC(=O)CN1CCC(Oc2cc3c(Nc4cccc(Cl)c4F)ncnc3cc2OC)CC1 [Sapitinib],0,0,0,0,0,0,0,0
CN1CCN(CCOc2cc(OC3CCOCC3)c3c(Nc4c(Cl)ccc5c4OCO5)ncnc3c2)CC1 [Saracatinib],0.3,2.3,0.8,0.9,4,0,2.8,1.8
CC1=C2C[C@H]3[C@@H](CC[C@@H]4C[C@H](NS(C)(=O)=O)CC[C@@]43C)[C@@H]2CC[C@@]2(C1)O[C@@H]1C[C@H](C)CN[C@H]1[C@H]2C [Saridegib],0,0,0,0,0,0,0.5,0
CC[C@H](CO)Nc1nc(NCc2ccccc2)c2ncn(C(C)C)c2n1 [Seliciclib],2.6,0.8,0,0,0,0,1.7,0
O=C(/C=C\n1cnc(-c2cc(C(F)(F)F)cc(C(F)(F)F)c2)n1)NNc1cnccn1 [Selinexor],12.4,9.6,11.5,8.4,9.2,13.3,18.7,8.2
Cc1cc(F)c(C(=O)Nc2cccc(-c3nncn3C(C)C)n2)cc1-n1cnc(C2CC2)c1 [Selonsertib],0,0,0,0,0,0,0,0
CN1CCN(C(=O)c2ccc3cc(CCNc4ncnc5ccc(C#N)cc45)ccc3c2)CC1 [Senexin B],0,1,1.2,0.1,0,0,0,0.9
COCC[n+]1c2c(n(Cc3cnccn3)c1C)C(=O)c1ccccc1C2=O [Sepantronium bromide],34.6,21.9,41,22.3,34.4,36.2,43.2,35.2
Nc1nc2cc(-c3ccc4ncc(C(=O)N5CCOCC5)n4c3)ccc2o1 [Serabelisib],0,0.5,0.3,0,0,0,0.1,0
O=C(O)c1ccc2c(c1)nc(Nc1cccc(Cl)c1)c1ccncc12 [Silmitasertib],3.3,3.2,9.2,3.4,2.3,2.7,7.3,2.4
CCC(C)(C)C(=O)O[C@H]1C[C@@H](C)C=C2C=C[C@H](C)[C@H](CC[C@@H]3C[C@@H](O)CC(=O)O3)[C@H]21 [Simvastatin],2.8,0,1,0.3,0,0.1,4.5,1
CO[C@H]1C[C@@H]2CC[C@@H](C)[C@@](O)(O2)C(=O)C(=O)N2CCCC[C@H]2C(=O)O[C@H]([C@H](C)C[C@@H]2CC[C@@H](O)[C@H](OC)C2)CC(=O)[C@H](C)/C=C(\C)[C@@H](O)[C@@H](OC)C(=O)[C@H](C)C[C@H](C)/C=C/C=C/C=C/1C [Sirolimus],0,0.2,0.2,1.2,0.9,0,4.5,0
COCCNCc1ccc(-c2cc3nccc(Oc4ccc(NC(=O)C5(C(=O)Nc6ccc(F)cc6)CC5)cc4F)c3s2)nc1 [Sitravatinib],0.6,2,2.6,2.4,2.3,0,2.1,1.9
